Results as given in patent publication US20110289042A1, “Integrative Framework for Three-Stage Integrative Pathway Search” (BOARD OF TRUSTEES OF MICHAGN STATE UNIVERSITY, priority 2005, published 2011).
Read-outs that look alike come from different tables or passages of the source.

Tests used:
Type in all cases: cell-based, human
[1] = test system: phospho-P65 NF-κB; assay: phospho-P65 NF-κB by western blot in HepG2 cells
Protocol: Therefore, we tested the possibility of this link in HepG2 cells by adding rottlerin, an inhibitor of PKC-δ, and measuring the protein expression and activity levels of NF-κB with western blots. […] This confirmed the connection between TNF-α and PKC-δ in the reconstructed network (model). To determine whether PKC-δ is involved in mediating the activation of NF-κB by TNF-α, PKC-δ was inhibited by a PKC-δ specific inhibitor rottlerin. The activity of NF-κB was measured with western blots by detecting the levels of phosphorylated NF-κB p65 at serine 536 [Sakurai et al. 2003]. As shown in FIG. 6(A), the activation of NF-κB p65 was attenuated by rottlerin. […] Therefore, PKC-δ was appropriately identified by the model to be an important factor in mediating the TNF-α signaling pathway.
PKC-δ was inhibited with rottlerin (BIOMOL Research Laboratories, Plymouth Meeting, Pa.). […] After 48 hours of exposure, cells were lysated with 1× SDS sample buffer. After ultrasonication for 11-15 seconds, the suspension was centrifuged (10,000 relative centrifugal force (rcf), 5 minutes). The supernatant was run on 7.5% gradient SDS-PAGE, transferred to a nitrocellulose membrane, blocked for 1 hour at room temperature with 5% milk protein solution in Tris buffered saline with Tween 20, and exposed to monoclonal anti-phospho NF-κB (65 kDa subunit) (Cell Signaling Technology Inc., MA) at 1:2000 dilution overnight at 4° C. The blot was washed and put in rabbit anti-mouse IgG secondary antibody (1:2000 dilution in TBS-Tween) for 1 hour. The blot was washed thrice each in TBS-Tween and TBS and developed using Supersignal West Femto Substrate (Pierce Chemicals), and imaged with Bio-Rad imager.
Bcl-2 was inhibited with HA14-1 (BIOMOL Research Laboratories, Plymouth Meeting, Pa.) at 10 μM. The phospho-NF-κB p65 was detected with monoclonal anti-phospho NF-κB (65 kDa subunit) (Cell Signaling Technology Inc., Danvers, Mass., US) at 1:2000 dilution.

[2] = test system: stearoyl-CoA desaturase (SCD); assay: SCD protein expression by western blot in HepG2 cells
Protocol: The protein expression level of SCD in HepG2 cells cultured in control (HepG2 medium), palmitate, oleate, palmitate+oleate, mediums were measured as a function of TNF-α with western blots.

[3] = test system: Hep G2/C3A cells
Protocol: Cell Culture. 1 million Hep G2/C3A cells (ATCC, Manassas, Va.) were seeded into each well of 6-well culture plate. The cells were kept in 2 mL of medium containing Dulbecco's modified Eagles medium (Invitrogen, Carlsbad, Calif.) supplemented with 10% fetal bovine serum (ATCC) and 2% Penicillin-streptomycin (Invitrogen). Cells were incubated at 37° C. and in 10% CO2 atmosphere. After cells reached confluence, the medium was replaced with 2 mL of treatment of FFA including palmitate (700 μM), oleate (700 μM), linoleate (700 μM) and TNF-α (0, 20, 100 ng/mL′)
Cytotoxicity measurement. […] Cells were washed with phosphate buffered saline (PBS) and kept in 1% Triton-X-100 in PBS for 24 h at 37° C. Cell lysate was then collected, vortexed for 15 seconds, and centrifuged at 7000 rpm for 5 minutes. Cytotoxicity detection kit (Roche Applied Science, Indianapolis, Ind.) was used to measure the LDH release. LDH released was normalized to the total LDH (released+lyzed).

[4] = test system: Bcl-2; assay: Bcl-2 protein expression by western blot in HepG2 cells
Protocol: Cells cultured in mediums of HepG2, Palmitate, Oleate, Palmitate (400 μM)+Oleate medium (300 μM) were lysated as described before. The protein samples were run on 10-20% gradient SDS-PAGE. Bcl-2 was probed with Bcl-2 antibody (1:1000) (Cell Signaling Technology, Inc., Danvers, Mass., US) as the primary antibody and goat anti-rabbit IgG as the second antibody at 1:1000 dilution.

[5] = test system: SCD gene expression; assay: SCD gene expression by cDNA microarray in HepG2 cells; conditions: TNF-α in HepG2 cells; log 2(treatment/control)
Protocol: Gene expression profiling. Cells were cultured in 10 cm tissue culture plates until confluence and then exposed to different treatments. RNA was isolated with Trizol reagent. The gene expression profiling was obtained with cDNA microarray. Analyses were done at the Van Andel Institute, Grand Rapids, Mich. The protocols are available online at (http://microarray.vai.org/protocols/). There were two biological replicates for each condition and each replicate was measured with the Cy3 and Cy5 dyes.

[6] = test system: PKC-δ; assay: PKC-δ expression by western blot in HepG2 cells; conditions: TNF-α 20 and 100 ng/mL; control, palmitate and oleate cultures
Protocol: PKC-δ Inhibiting Analysis. The levels of PKC-δ in HepG2, palmitate (700 μM), oleate (700 μM) and palmitate (400 μM)+oleate medium (300 μM) with TNF-α supplementation of 0, 20, 100 ng/mL were detected with western blotting using anti-PKC-δ antibody (Santa Cruz Biotechnology, Inc., Santa Cruz, Calif., US) at 1:2000 dilution.

Question: For `CCOC(=O)C1=C(N)Oc2ccc(Br)cc2C1C(C#N)C(=O)OCC` (stereo not shown) [HA14-1], which “activation of phospho-P65 NF-κB” value ([1]; 10 μM, control, palmitate, oleate and palmitate+oleate co-supplementation cultures) is on record?
Answer: attenuated the activation of phospho-P65 NF-κB

Question: What does the source list for `CC(=O)N[C@@H](CS)C(=O)O` [N-acetyl cysteine]?
Answer: SCD protein expression in palmitate culture ([2]; co-supplementation of 10 mM): prevented the SCD down-regulation; LDH release in palmitate culture ([3]; co-supplementation of 10 mM): reduced LDH release

Question: Which LDH release ([3]; PKR inhibitor 6 μM in control culture medium, 3% without inhibitor) does the source give for `O=C1Nc2ccc3ncsc3c2/C1=C/c1cnc[nH]1` [PKR inhibitor] here?
Answer: 25%

Question: And the Bcl-2 expression ([4]; 6 μM in culture medium of control)?
Answer: decreased the Bcl-2 expression

Question: Which “LDH release in palmitate culture” value ([3]; 6 hours pretreatment followed by 48 hours co-supplementation of 50 μM, palmitate culture) does the source give for `CC(C)(Oc1ccc(C2CC2(Cl)Cl)cc1)C(=O)O` (stereo not shown) [ciprofibrate] here?
Answer: significantly decrease LDH release

Question: `CC(=O)c1c(O)c(C)c(O)c(Cc2c(O)c3c(c(C(=O)/C=C/c4ccccc4)c2O)OC(C)(C)C=C3)c1O` [rottlerin] was tested. Which “TNF-α-induced activation of phospho-P65 NF-κB” value ([1]; rottlerin 5 μM, 0, 20 or 100 ng/mL TNF-α) did it give?
Answer: this activation was attenuated

Question: What about the “increase of LDH release in the palmitate cultures” value ([3]; rottlerin added to palmitate cultures) of the same molecule?
Answer: up to 25%

Question: What does the source list for TNF-α?
Answer: gene expression of SCD [5]: upregulated; phospho-P65 NF-κB ([1]; TNF-α 0, 20 or 100 ng/mL): activated phospho-P65 NF-κB; SCD protein expression ([2]; TNF-α, control, oleate and co-supplementation cultures): decreased the expression of SCD; cytotoxicity [3]: cytotoxic; LDH release in control culture ([3]; TNF-α in control culture): did not affect LDH release; cytotoxicity ([3]; record 2): cytoprotective; Bcl-2 expression ([4]; TNF-α 20-100 ng/mL, control, palmitate and oleate cultures): down-regulated; expression of PKC-δ 41 kDa catalytically active fragment [6]: increased
